Measurements: the NIST ThermoML archive (doi:10.1016/j.jct.2013.10.031)

Assay: wn = mass fraction of the nth substance listed
Conditions: Gas, Burnett expansion method

FCC(F)(F)F [1,1,1,2-tetrafluoroethane] + CCC
Conditions | mass density [kg/m3]
272.14 K, 376.9 kPa, w2 = 0.4 | 12.2714
272.14 K, 486.9 kPa, w2 = 0.4 | 16.3457
275.01 K, 306 kPa, w2 = 0.6 | 8.178
275.01 K, 398.5 kPa, w2 = 0.6 | 10.8743
275.01 K, 514 kPa, w2 = 0.6 | 14.4598
275.02 K, 233.7 kPa, w2 = 0.6 | 6.1499
275.03 K, 233.5 kPa, w2 = 0.55 | 6.3604
275.04 K, 177.6 kPa, w2 = 0.55 | 4.7832
275.04 K, 259 kPa, w2 = 0.65 | 6.6072
275.04 K, 397.9 kPa, w2 = 0.55 | 11.2458
275.04 K, 513.5 kPa, w2 = 0.55 | 14.954
275.05 K, 134.8 kPa, w2 = 0.55 | 3.597
275.05 K, 197.5 kPa, w2 = 0.65 | 4.9688
275.05 K, 305.8 kPa, w2 = 0.55 | 8.4571
275.05 K, 338.2 kPa, w2 = 0.65 | 8.7857
275.06 K, 150.2 kPa, w2 = 0.65 | 3.7365
275.06 K, 438.6 kPa, w2 = 0.65 | 11.682
276.01 K, 525 kPa, w2 = 0.5 | 16.127
276.07 K, 240.8 kPa, w2 = 0.5 | 6.8235
276.07 K, 314.5 kPa, w2 = 0.5 | 9.08914
276.08 K, 138.3 kPa, w2 = 0.5 | 3.84563
276.08 K, 182.4 kPa, w2 = 0.5 | 5.12246
276.08 K, 408.6 kPa, w2 = 0.5 | 12.1069
276.09 K, 131.9 kPa, w2 = 0.4 | 3.96275
276.09 K, 173.8 kPa, w2 = 0.4 | 5.27854
276.09 K, 228.4 kPa, w2 = 0.4 | 7.03132
276.09 K, 299.1 kPa, w2 = 0.4 | 9.36594
276.09 K, 389.5 kPa, w2 = 0.4 | 12.4758
276.09 K, 503.4 kPa, w2 = 0.4 | 16.618
276.23 K, 613 kPa, w2 = 0.45 | 19.9443
276.24 K, 369.2 kPa, w2 = 0.45 | 11.24
276.25 K, 215.6 kPa, w2 = 0.45 | 6.3345
276.25 K, 282.9 kPa, w2 = 0.45 | 8.43787
276.25 K, 478.6 kPa, w2 = 0.45 | 14.9718
276.26 K, 163.8 kPa, w2 = 0.45 | 4.75547
278.98 K, 613.4 kPa, w2 = 0.55 | 18.0169
278.99 K, 431 kPa, w2 = 0.65 | 11.2429
279 K, 193.1 kPa, w2 = 0.65 | 4.7818
279 K, 253.6 kPa, w2 = 0.65 | 6.3584
279 K, 331.6 kPa, w2 = 0.65 | 8.4549
279 K, 555.1 kPa, w2 = 0.65 | 14.9493
279.04 K, 478.7 kPa, w2 = 0.55 | 13.5464
279.05 K, 201 kPa, w2 = 0.6 | 5.1513
279.05 K, 264.1 kPa, w2 = 0.6 | 6.8498
279.06 K, 152.4 kPa, w2 = 0.6 | 3.874
279.06 K, 345.5 kPa, w2 = 0.6 | 9.1083
279.06 K, 369.2 kPa, w2 = 0.55 | 10.1866
279.06 K, 448.9 kPa, w2 = 0.6 | 12.1114
279.06 K, 577.6 kPa, w2 = 0.6 | 16.1046
279.07 K, 163.6 kPa, w2 = 0.55 | 4.3324
279.07 K, 282.8 kPa, w2 = 0.55 | 7.6605
279.08 K, 215.4 kPa, w2 = 0.55 | 5.7608
280.01 K, 670.7 kPa, w2 = 0.4 | 22.729
280.02 K, 180.8 kPa, w2 = 0.4 | 5.41974
280.02 K, 237.8 kPa, w2 = 0.4 | 7.21933
280.02 K, 311.5 kPa, w2 = 0.4 | 9.61644
280.02 K, 405.9 kPa, w2 = 0.4 | 12.8096
280.02 K, 524.7 kPa, w2 = 0.4 | 17.0629
280.17 K, 150 kPa, w2 = 0.45 | 4.28073
280.17 K, 197.2 kPa, w2 = 0.45 | 5.70206
280.17 K, 436.6 kPa, w2 = 0.45 | 13.4767
280.18 K, 257.8 kPa, w2 = 0.45 | 7.59526
280.18 K, 336.4 kPa, w2 = 0.45 | 10.1172
280.18 K, 562.4 kPa, w2 = 0.45 | 17.9508
280.2 K, 176.2 kPa, w2 = 0.5 | 4.88417
280.2 K, 228 kPa, w2 = 0.5 | 6.50598
280.2 K, 295.2 kPa, w2 = 0.5 | 8.66625
280.2 K, 382.2 kPa, w2 = 0.5 | 11.5437
280.2 K, 490.7 kPa, w2 = 0.5 | 15.3768
280.2 K, 626.5 kPa, w2 = 0.5 | 20.4828
282.96 K, 514.9 kPa, w2 = 0.6 | 16.8632
282.98 K, 397.4 kPa, w2 = 0.6 | 10.4251
282.98 K, 629.9 kPa, w2 = 0.6 | 18.4329
282.99 K, 232 kPa, w2 = 0.6 | 5.8957
282.99 K, 301.9 kPa, w2 = 0.65 | 7.5146
282.99 K, 304.4 kPa, w2 = 0.6 | 7.8397
282.99 K, 353.3 kPa, w2 = 0.55 | 9.521
282.99 K, 510.2 kPa, w2 = 0.65 | 13.287
282.99 K, 592.4 kPa, w2 = 0.55 | 16.8344
283 K, 155.9 kPa, w2 = 0.55 | 4.0493
283 K, 176.1 kPa, w2 = 0.6 | 4.4337
283 K, 205.5 kPa, w2 = 0.55 | 5.3845
283 K, 230.2 kPa, w2 = 0.65 | 5.6511
283 K, 270 kPa, w2 = 0.55 | 7.1599
283 K, 393.8 kPa, w2 = 0.65 | 9.9922
283 K, 459.5 kPa, w2 = 0.55 | 12.6599
283 K, 653.6 kPa, w2 = 0.65 | 17.6674
283.01 K, 175 kPa, w2 = 0.65 | 4.2497
283.86 K, 174.7 kPa, w2 = 0.4 | 5.14203
283.87 K, 229.9 kPa, w2 = 0.4 | 6.84912
283.87 K, 301.6 kPa, w2 = 0.4 | 9.12315
283.88 K, 393.6 kPa, w2 = 0.4 | 12.1512
283.9 K, 510.3 kPa, w2 = 0.4 | 16.1858
283.94 K, 655.1 kPa, w2 = 0.4 | 21.5571
284.1 K, 397.4 kPa, w2 = 0.45 | 11.7333
284.1 K, 515.6 kPa, w2 = 0.45 | 15.6293
284.1 K, 662.3 kPa, w2 = 0.45 | 20.819
284.11 K, 176.2 kPa, w2 = 0.45 | 4.96426
284.11 K, 231.9 kPa, w2 = 0.45 | 6.61256
284.11 K, 304.4 kPa, w2 = 0.45 | 8.80835
284.11 K, 711.7 kPa, w2 = 0.5 | 21.5401
284.12 K, 555.4 kPa, w2 = 0.5 | 16.1702
284.13 K, 189.6 kPa, w2 = 0.5 | 5.13602
284.13 K, 249.8 kPa, w2 = 0.5 | 6.84131
284.13 K, 327.9 kPa, w2 = 0.5 | 9.11297
284.13 K, 428.3 kPa, w2 = 0.5 | 12.139
287 K, 196.2 kPa, w2 = 0.6 | 4.8811
287 K, 768.5 kPa, w2 = 0.65 | 20.9537
287.01 K, 258.3 kPa, w2 = 0.6 | 6.4904
287.01 K, 274.8 kPa, w2 = 0.65 | 6.7019
287.01 K, 311.4 kPa, w2 = 0.55 | 8.1881
287.01 K, 338.5 kPa, w2 = 0.6 | 8.6303
287.01 K, 406.7 kPa, w2 = 0.55 | 10.8878
287.01 K, 527.4 kPa, w2 = 0.55 | 14.4779
287.01 K, 571.1 kPa, w2 = 0.6 | 15.26
287.01 K, 603.8 kPa, w2 = 0.65 | 15.7575
287.01 K, 677.5 kPa, w2 = 0.55 | 19.2516
287.01 K, 730.6 kPa, w2 = 0.6 | 20.2911
287.02 K, 180 kPa, w2 = 0.55 | 4.6307
287.02 K, 209 kPa, w2 = 0.65 | 5.0401
287.02 K, 237.2 kPa, w2 = 0.55 | 6.1576
287.02 K, 359.7 kPa, w2 = 0.65 | 8.9115
287.02 K, 441.6 kPa, w2 = 0.6 | 11.4756
287.02 K, 467.8 kPa, w2 = 0.65 | 11.85
287.89 K, 145.9 kPa, w2 = 0.4 | 4.20423
287.89 K, 192.3 kPa, w2 = 0.4 | 5.60013
287.89 K, 253 kPa, w2 = 0.4 | 7.45965
287.89 K, 331.1 kPa, w2 = 0.4 | 9.93648
287.9 K, 431.5 kPa, w2 = 0.4 | 13.2354
287.9 K, 558 kPa, w2 = 0.4 | 17.6298
287.93 K, 714.8 kPa, w2 = 0.4 | 23.4815
288.06 K, 650.7 kPa, w2 = 0.45 | 19.9802
288.07 K, 171.7 kPa, w2 = 0.45 | 4.76422
288.07 K, 226.1 kPa, w2 = 0.45 | 6.34615
288.07 K, 297 kPa, w2 = 0.45 | 8.45356
288.07 K, 388.5 kPa, w2 = 0.45 | 11.2604
288.07 K, 505 kPa, w2 = 0.45 | 14.9994
288.07 K, 827.4 kPa, w2 = 0.45 | 26.6134
288.18 K, 242.5 kPa, w2 = 0.5 | 6.52495
288.18 K, 416.8 kPa, w2 = 0.5 | 11.5774
288.19 K, 184.1 kPa, w2 = 0.5 | 4.89841
288.19 K, 318.7 kPa, w2 = 0.5 | 8.69128
288.19 K, 541.6 kPa, w2 = 0.5 | 15.4214
288.19 K, 696.9 kPa, w2 = 0.5 | 20.5413
291 K, 851.2 kPa, w2 = 0.55 | 24.7999
291.01 K, 519.6 kPa, w2 = 0.55 | 14.0252
291.01 K, 669.4 kPa, w2 = 0.55 | 18.65
291.02 K, 399.8 kPa, w2 = 0.55 | 10.5472
291.03 K, 305.7 kPa, w2 = 0.55 | 7.9316
291.04 K, 168.3 kPa, w2 = 0.6 | 4.1049
291.04 K, 222.1 kPa, w2 = 0.6 | 5.4582
291.04 K, 232.6 kPa, w2 = 0.55 | 5.9647
291.04 K, 292.1 kPa, w2 = 0.6 | 7.2581
